# Test results as given in PubChem BioAssay AID2060890 (Molecular Pharmacology Branch, DTP, NCI, 2025).
# Test system: LG0703-F948-PDC complex spheroid viability
# Assay: Anticancer human tumor LG0703-F948-PDC patient-derived lung adenocarcinoma cell line growth inhibition [RAS]
# Conditions: for IC50: curve of first compound; for viability, T/C: stronger effect = lower value
# Summary of the method: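 Agents were tested in combination matrices in half-log decrements from a top concentration at or near clinical Cmax (10 microM if undetermined). Targets were multi-cell spheroids of tumour lines plus HUVEC and MSC stromal cells.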
# [1] = second compound 0.0316 µM, first compound 0.0316 µM
# [2] = second compound 0.0316 µM, first compound 0.1 µM
# [3] = second compound 0.0316 µM, first compound 0.316 µM
# [4] = second compound 0.0316 µM, first compound 1 µM
# [5] = second compound 0.1 µM, first compound 0.0316 µM
# [6] = second compound 0.1 µM, first compound 0.1 µM
# [7] = second compound 0.1 µM, first compound 0.316 µM
# [8] = second compound 0.1 µM, first compound 1 µM
# [9] = second compound 0.316 µM, first compound 0.0316 µM
# [10] = second compound 0.316 µM, first compound 0.1 µM
# [11] = second compound 0.316 µM, first compound 0.316 µM
# [12] = second compound 0.316 µM, first compound 1 µM
# [13] = second compound 1 µM, first compound 0.0316 µM
# [14] = second compound 1 µM, first compound 0.1 µM
# [15] = second compound 1 µM, first compound 0.316 µM
# [16] = second compound 1 µM, first compound 1 µM
# 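Further: spheroids exposed to agents for 7 days.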
# 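Wherever viability, T/C is given: 100% = DMSO vehicle wells.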
structure (smiles),measurement,setting,value
C=CC(=O)N1CCN(c2nc(OCC3CCCN3C)nc3c(F)c(-c4nc(N)cc(C)c4C(F)(F)F)c(Cl)cc23)C(C)C1 (configuration not stated) + C#Cc1c(F)ccc2cc(O)cc(-c3ncc4c(N5CC6CCC(C5)N6)nc(OCC56CCCN5CC(F)C6)nc4c3F)c12,IC50,second compound 0.0316 µM,> 1 µM
same,IC50,second compound 0.1 µM,> 1 µM
same,IC50,second compound 0.316 µM,> 1 µM
same,IC50,second compound 1 µM,> 1 µM
same,IC50,second compound 3.16 µM,> 1 µM
same,IC50,second compound 10 µM,0.197 µM
same,"viability, T/C","second compound 0.0316 µM, first compound 0.00316 µM",127%
same,"viability, T/C","second compound 0.0316 µM, first compound 0.01 µM",87.8%
same,"viability, T/C",[1],111%
same,"viability, T/C",[2],120%
same,"viability, T/C",[3],109%
same,"viability, T/C",[4],85.2%
same,"viability, T/C","second compound 0.1 µM, first compound 0.00316 µM",98.7%
same,"viability, T/C","second compound 0.1 µM, first compound 0.01 µM",110%
same,"viability, T/C",[5],94.9%
same,"viability, T/C",[6],104%
same,"viability, T/C",[7],109%
same,"viability, T/C",[8],97.8%
same,"viability, T/C","second compound 0.316 µM, first compound 0.00316 µM",89.5%
same,"viability, T/C","second compound 0.316 µM, first compound 0.01 µM",82.2%
same,"viability, T/C",[9],86.1%
same,"viability, T/C",[10],72.6%
same,"viability, T/C",[11],82%
same,"viability, T/C",[12],84.6%
same,"viability, T/C","second compound 1 µM, first compound 0.00316 µM",63.7%
same,"viability, T/C","second compound 1 µM, first compound 0.01 µM",76.6%
same,"viability, T/C",[13],79.3%
same,"viability, T/C",[14],66.2%
same,"viability, T/C",[15],73.9%
same,"viability, T/C",[16],75%
same,"viability, T/C","second compound 3.16 µM, first compound 0.00316 µM",61.8%
same,"viability, T/C","second compound 3.16 µM, first compound 0.01 µM",57.8%
same,"viability, T/C","second compound 3.16 µM, first compound 0.0316 µM",75.3%
same,"viability, T/C","second compound 3.16 µM, first compound 0.1 µM",63.6%
same,"viability, T/C","second compound 3.16 µM, first compound 0.316 µM",59.3%
same,"viability, T/C","second compound 3.16 µM, first compound 1 µM",62.9%
same,"viability, T/C","second compound 10 µM, first compound 0.00316 µM",51.9%
same,"viability, T/C","second compound 10 µM, first compound 0.01 µM",54.2%
same,"viability, T/C","second compound 10 µM, first compound 0.0316 µM",54.1%
same,"viability, T/C","second compound 10 µM, first compound 0.1 µM",47.5%
same,"viability, T/C","second compound 10 µM, first compound 0.316 µM",50.7%
same,"viability, T/C","second compound 10 µM, first compound 1 µM",47%
CCc1c2c(nc3ccc(O)cc13)-c1cc3c(c(=O)n1C2)COC(=O)[C@]3(O)CC,"viability, T/C",compound 0.003 µM,98.3% [middle of 4 runs]
same,"viability, T/C",compound 0.03 µM,65.8% [middle of 4 runs]
same,"viability, T/C",compound 0.3 µM,31.6% [middle of 4 runs]
CC(=O)OC12COC1CC(O)C1(C)C(=O)C(O)C3=C(C)C(OC(=O)C(O)C(NC(=O)OC(C)(C)C)c4ccccc4)CC(O)(C(OC(=O)c4ccccc4)C21)C3(C)C (configuration not stated) + C=CC(=O)N1CCN(c2nc(OCC3CCCN3C)nc3c(F)c(-c4nc(N)cc(C)c4C(F)(F)F)c(Cl)cc23)C(C)C1,IC50,second compound 0.00316 µM,< 0.0316 µM
same,IC50,second compound 0.01 µM,< 0.0316 µM
same,IC50,second compound 0.0316 µM,< 0.0316 µM
same,IC50,second compound 0.1 µM,< 0.0316 µM
same,IC50,second compound 0.316 µM,< 0.0316 µM
same,IC50,second compound 1 µM,< 0.0316 µM
same,"viability, T/C","second compound 0.00316 µM, first compound 0.0316 µM",26.8%
same,"viability, T/C","second compound 0.00316 µM, first compound 0.1 µM",25.4%
same,"viability, T/C","second compound 0.00316 µM, first compound 0.316 µM",22.2%
same,"viability, T/C","second compound 0.00316 µM, first compound 1 µM",23.7%
same,"viability, T/C","second compound 0.00316 µM, first compound 3.16 µM",29.5%
same,"viability, T/C","second compound 0.00316 µM, first compound 10 µM",27.1%
same,"viability, T/C","second compound 0.01 µM, first compound 0.0316 µM",23.1%
same,"viability, T/C","second compound 0.01 µM, first compound 0.1 µM",24.4%
same,"viability, T/C","second compound 0.01 µM, first compound 0.316 µM",26.5%
same,"viability, T/C","second compound 0.01 µM, first compound 1 µM",23.5%
same,"viability, T/C","second compound 0.01 µM, first compound 3.16 µM",30.9%
same,"viability, T/C","second compound 0.01 µM, first compound 10 µM",27.5%
same,"viability, T/C",[1],28.5%
same,"viability, T/C",[2],26.2%
same,"viability, T/C",[3],26.1%
same,"viability, T/C",[4],30.7%
same,"viability, T/C","second compound 0.0316 µM, first compound 3.16 µM",22.3%
same,"viability, T/C","second compound 0.0316 µM, first compound 10 µM",29%
same,"viability, T/C",[5],22.1%
same,"viability, T/C",[6],26.4%
same,"viability, T/C",[7],28.6%
same,"viability, T/C",[8],28.8%
same,"viability, T/C","second compound 0.1 µM, first compound 3.16 µM",27.4%
same,"viability, T/C","second compound 0.1 µM, first compound 10 µM",24.7%
same,"viability, T/C",[9],24.9%
same,"viability, T/C",[10],24%
same,"viability, T/C",[11],26.4%
same,"viability, T/C",[12],30.4%
same,"viability, T/C","second compound 0.316 µM, first compound 3.16 µM",28.1%
same,"viability, T/C","second compound 0.316 µM, first compound 10 µM",23.6%
same,"viability, T/C",[13],31.5%
same,"viability, T/C",[14],27.3%
same,"viability, T/C",[15],27.9%
same,"viability, T/C",[16],29.2%
same,"viability, T/C","second compound 1 µM, first compound 3.16 µM",33.5%
same,"viability, T/C","second compound 1 µM, first compound 10 µM",32%
